Measured values: publication PMC4648982 (Chemistry Central Journal, 2015)
Entries after “also recorded” stand apart in the source; their conditions may differ. Counter-ions that a name gives are not always drawn.

target: jack bean urease (Canavalia ensiformis, UniProt P07374); assay: biochemical; conditions: not given
Procedure: Reaction mixture comprising of 25μL of enzyme (jack bean urease) (1 unit/well) solution and 55 μL of phosphate buffers (4 mM) containing 100 mM urea were incubated with 5 μL of test compounds dissolved in methanol (0.5 mM concentration) at 30 °C for 15 min in 96-well plates. Urease activity was determined by measuring ammonia production using the indophenol method as described by Weather burn. Briefly, 45 μl each phenol reagent (1 % w/v phenol and 0.005 % w/v sodium nitroprussside) and 70 μL of alkali reagent(0.5 % w/v NaOH and 0.1 % active chloride NaOCl) were added to each well. The increasing absorbance at 630 nm was measured afther 50 min, using a microplate reader (Molecular Device, USA). All reactions were performed in triplicate in a final volume of 200 μL. The results (change in absorbance per min) were processed by using softMax Pro software (molecular Device, USA). The entire assays were performed at pH 6.8. Percentage inhibitions were calculated from the formula 100 − (ODtestwell/ODcontrol) × 100. Thiourea was used as the standard inhibitor of urease.

Chain of jack bean urease (P07374 whole entry, looked up): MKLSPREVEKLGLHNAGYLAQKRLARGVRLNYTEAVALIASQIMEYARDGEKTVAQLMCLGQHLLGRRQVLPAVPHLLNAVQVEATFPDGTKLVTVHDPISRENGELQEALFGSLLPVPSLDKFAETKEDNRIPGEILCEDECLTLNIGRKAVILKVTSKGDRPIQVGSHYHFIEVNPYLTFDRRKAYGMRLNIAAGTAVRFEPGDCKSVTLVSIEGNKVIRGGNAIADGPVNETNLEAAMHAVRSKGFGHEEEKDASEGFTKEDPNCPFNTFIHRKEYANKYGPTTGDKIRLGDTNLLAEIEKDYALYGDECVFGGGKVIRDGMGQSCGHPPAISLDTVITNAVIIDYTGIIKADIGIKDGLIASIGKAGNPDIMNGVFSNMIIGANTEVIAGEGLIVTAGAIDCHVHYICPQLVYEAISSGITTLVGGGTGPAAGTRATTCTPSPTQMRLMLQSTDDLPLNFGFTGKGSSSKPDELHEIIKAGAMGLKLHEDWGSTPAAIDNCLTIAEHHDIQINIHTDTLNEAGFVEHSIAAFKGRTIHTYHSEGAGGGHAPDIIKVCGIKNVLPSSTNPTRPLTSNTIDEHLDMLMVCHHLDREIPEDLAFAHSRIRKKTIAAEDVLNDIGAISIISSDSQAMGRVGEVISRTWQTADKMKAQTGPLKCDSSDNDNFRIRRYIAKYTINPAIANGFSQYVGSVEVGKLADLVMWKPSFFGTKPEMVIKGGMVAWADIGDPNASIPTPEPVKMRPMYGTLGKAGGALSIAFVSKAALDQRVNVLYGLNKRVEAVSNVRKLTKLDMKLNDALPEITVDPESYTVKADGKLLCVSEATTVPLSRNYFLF

Point of comparison: `Cn1c(O)c(C(C2=C(O)CC(C)(C)CC2=O)c2ccccc2)c(=O)n(C)c1=O` (centres unmarked) [Compound 4m, 5-((2-Hydroxy-4,4-dimethyl-6-oxocyclohex-1-en-1-yl)(phenyl)methyl)-1,3-dimethyl-2,6-dioxo-1,2,3,6-tetrahydropyrimidin-4-olate diethylaminium salt], IC50 39.3 ± 0.79 µM. Against it:
- Cn1c(O)c(C(c2ccc(C=O)cc2)c2c(O)n(C)c(=O)n(C)c2=O)c(=O)n(C)c1=O [Compound 4a, 4-(bis(6-Hydroxy-1,3-dimethyl-2,4-dioxo-1,2,3,4-tetrahydropyrimidin-5-yl)methyl)benzaldehyde diethylaminium salt] — the same, 39.3 ± 0.36 µM
- Cc1cccc(C(c2c(O)n(C)c(=O)n(C)c2=O)c2c(O)n(C)c(=O)n(C)c2=O)c1 [Compound 4b, 5,5′-(3-Tolylmethylene)bis(1,3-dimethylpyrimidine-2,4,6(1H,3H,5H)-trione) diethylaminium salt] — within 1.5-fold, 34.4 ± 1.57 µM
- Cn1c(O)c(C(c2ccc([N+](=O)[O-])cc2)c2c(O)n(C)c(=O)n(C)c2=O)c(=O)n(C)c1=O [Compound 4c, 5,5′-((4-Nitrophenyl)methylene)bis(1,3-dimethylpyrimidine-2,4,6(1H,3H,5H)-trione)diethylaminium salt] — within 1.5-fold, 54.2 ± 0.47 µM
- COc1ccc(C(c2c(O)n(C)c(=O)n(C)c2=O)c2c(O)n(C)c(=O)n(C)c2=O)cc1 [Compound 4d, 5,5′-((4-Methoxyphenyl)methylene)bis(1,3-dimethylpyrimidine-2,4,6(1H,3H,5H)-trione) diethylaminium salt] — within 1.5-fold, 31.6 ± 0.79 µM
- Cn1c(O)c(C(c2cccc(Br)c2)c2c(O)n(C)c(=O)n(C)c2=O)c(=O)n(C)c1=O [Compound 4e, 5,5′-((3-Bromophenyl)methylene)bis(1,3-dimethylpyrimidine-2,4,6(1H,3H,5H)-trione) diethylaminium salt] — within 1.5-fold, 27.5 ± 0.12 µM
- Cn1c(O)c(C(c2ccc(O)cc2)c2c(O)n(C)c(=O)n(C)c2=O)c(=O)n(C)c1=O [Compound 4f, 5,5′-((4-hydroxyphenyl)methylene)bis(6-hydroxy-1,3-dimethylpyrimidine-2,4(1H,3H)-dione) diethylaminium salt] — within 1.5-fold, 54.2 ± 0.83 µM
- Cc1ccc(C(c2c(O)n(C)c(=O)n(C)c2=O)c2c(O)n(C)c(=O)n(C)c2=O)cc1 [Compound 4g, 5,5′-(p-Tolylmethylene)bis(1,3-dimethylpyrimidine-2,4,6(1H,3H,5H)-trione) diethylaminium salt] — within 1.5-fold, 28.5 ± 0.41 µM
- Cn1c(O)c(C(c2ccc3ccccc3c2)c2c(O)n(C)c(=O)n(C)c2=O)c(=O)n(C)c1=O [Compound 4h, 5,5′-(Naphthalen-2-ylmethylene)bis(1,3-dimethylpyrimidine-2,4,6(1H,3H,5H)-trione) diethylaminium salt] — within error, 40.3 ± 0.32 µM
- Cc1ccc(C(c2c(O)[nH]c(=O)[nH]c2=O)c2c(O)[nH]c(=O)[nH]c2=O)cc1 [Compound 4i, 5,5′-(p-Tolylmethylene)bis(6-hydroxypyrimidine-2,4(1H,3H)-dione) diethylaminium salt] — 2.2-fold lower, 17.6 ± 0.23 µM
- O=c1[nH]c(O)c(C(c2ccc(Cl)cc2)c2c(O)[nH]c(=O)[nH]c2=O)c(=O)[nH]1 [Compound 4j, 5,5′-((4-Chlorophenyl)methylene)bis(6-hydroxypyrimidine-2,4(1H,3H)-dione) diethylaminium salt] — 1.8-fold lower, 22.3 ± 0.73 µM
- COc1ccc(C(c2c(O)[nH]c(=O)[nH]c2=O)c2c(O)[nH]c(=O)[nH]c2=O)cc1 [Compound 4k, 5,5′-((4-Methoxyphenyl)methylene)bis(6-hydroxypyrimidine-2,4(1H,3H)-dione) diethylaminium salt] — 1.5-fold lower, 25.8 ± 0.23 µM
- O=c1[nH]c(O)c(C(c2ccc3ccccc3c2)c2c(O)[nH]c(=O)[nH]c2=O)c(=O)[nH]1 [Compound 4l, 5,5′-(Naphthalen-2-ylmethylene)bis(6-hydroxypyrimidine-2,4(1H,3H)-dione) diethylaminium salt] — 1.7-fold lower, 22.7 ± 0.2 µM
- Cc1ccc(C(C2=C(O)CC(C)(C)CC2=O)c2c(O)n(C)c(=O)n(C)c2=O)cc1 (centres unmarked) [Compound 4n, 5-((2-Hydroxy-4,4-dimethyl-6-oxocyclohex-1-en-1-yl)(p-tolyl)methyl)-1,3-dimethyl-2,6-dioxo-1,2,3,6-tetrahydropyrimidin-4-olate diethylaminium salt] — within 1.5-fold, 41.2 ± 0.58 µM
- COc1ccc(C(C2=C(O)CC(C)(C)CC2=O)c2c(O)n(C)c(=O)n(C)c2=O)cc1 (centres unmarked) [Compound 4o, 5-((2-Hydroxy-4,4-dimethyl-6-oxocyclohex-1-en-1-yl)(4-methoxyphenyl)methyl)-1,3-dimethyl-2,6-dioxo-1,2,3,6-tetrahydropyrimidin-4-olate diethylaminium salt] — 2.1-fold higher, 83 ± 0.66 µM
- Cn1c(O)c(C(C2=C(O)CC(C)(C)CC2=O)c2ccc(Cl)cc2)c(=O)n(C)c1=O (centres unmarked) [Compound 4p, 5-((4-Chlorophenyl)(2-hydroxy-4,4-dimethyl-6-oxocyclohex-1-en-1-yl)methyl)-1,3-dimethyl-2,6-dioxo-1,2,3,6-tetrahydropyrimidin-4-olate diethylaminium salt] — within error, 39.7 ± 0.7 µM
- Cn1c(O)c(C(C2=C(O)CC(C)(C)CC2=O)c2ccc(Br)cc2)c(=O)n(C)c1=O (centres unmarked) [Compound 4q, 5-((4-Bromophenyl)(2-hydroxy-4,4-dimethyl-6-oxocyclohex-1-en-1-yl)methyl)-1,3-dimethyl-2,6-dioxo-1,2,3,6-tetrahydropyrimidin-4-olate diethylaminium salt] — 1.6-fold lower, 24.6 ± 0.42 µM
- Cn1c(O)c(C(C2=C(O)CC(C)(C)CC2=O)c2cccc(Br)c2)c(=O)n(C)c1=O (centres unmarked) [Compound 4r, 5-((3-Bromophenyl)(2-hydroxy-4,4-dimethyl-6-oxocyclohex-1-en-1-yl)methyl)-1,3-dimethyl-2,6-dioxo-1,2,3,6-tetrahydropyrimidin-4-olate diethylaminium salt] — within 1.5-fold, 27.5 ± 0.19 µM
- Cn1c(O)c(C(C2=C(O)CC(C)(C)CC2=O)c2ccccc2[N+](=O)[O-])c(=O)n(C)c1=O (centres unmarked) [Compound 4s, 5-((2-Hydroxy-4,4-dimethyl-6-oxocyclohex-1-en-1-yl)(1-nitrophenyl)methyl)-1,3-dimethyl-2,6-dioxo-1,2,3,6-tetrahydropyrimidin-4-olate diethylaminium salt] — 2.8-fold higher, 110 ± 1.1 µM
- CN(C)c1ccc(C(C2=C(O)CC(C)(C)CC2=O)c2c(O)n(C)c(=O)n(C)c2=O)cc1 (centres unmarked) [Compound 4t, 5-((2-Hydroxy-4,4-dimethyl-6-oxocyclohex-1-en-1-yl)(4-(dimethylamino)phenyl)methyl)-1,3-dimethyl-2,6-dioxo-1,2,3,6-tetrahydropyrimidin-4-olate diethylaminium salt] — 3.6-fold higher, 142.1 ± 0.64 µM
- Cn1c(O)c(C(C2=C(O)CC(C)(C)CC2=O)c2ccc(O)cc2)c(=O)n(C)c1=O (centres unmarked) [Compound 4v, 5-((2-Hydroxy-4,4-dimethyl-6-oxocyclohex-1-en-1-yl)(4-hydroxyphenyl)methyl)-1,3-dimethyl-2,6-dioxo-1,2,3,6-tetrahydropyrimidin-4-olate diethylaminium salt] — within 1.5-fold, 52.2 ± 1.26 µM

same assay, conditions: in vitro assay, authors' verbal grading

In the case of `Cc1ccc(C(c2c(O)[nH]c(=O)[nH]c2=O)c2c(O)[nH]c(=O)[nH]c2=O)cc1` [Compound 4i, 5,5′-(p-Tolylmethylene)bis(6-hydroxypyrimidine-2,4(1H,3H)-dione) diethylaminium salt], the “urease inhibitory activity in words” value is reported as “most active”.
`O=c1[nH]c(O)c(C(c2ccc(Cl)cc2)c2c(O)[nH]c(=O)[nH]c2=O)c(=O)[nH]1` [Compound 4j, 5,5′-((4-Chlorophenyl)methylene)bis(6-hydroxypyrimidine-2,4(1H,3H)-dione) diethylaminium salt] was tested, and the “urease inhibitory activity in words” value was “active”.
For `Cn1c(O)c(C(C2=C(O)CC(C)(C)CC2=O)c2ccccc2[N+](=O)[O-])c(=O)n(C)c1=O` (centres unmarked) [Compound 4s, 5-((2-Hydroxy-4,4-dimethyl-6-oxocyclohex-1-en-1-yl)(1-nitrophenyl)methyl)-1,3-dimethyl-2,6-dioxo-1,2,3,6-tetrahydropyrimidin-4-olate diethylaminium salt], the “urease inhibitory activity in words” value was “inactivity”.
In the case of `CN(C)c1ccc(C(C2=C(O)CC(C)(C)CC2=O)c2c(O)n(C)c(=O)n(C)c2=O)cc1` (centres unmarked) [Compound 4t, 5-((2-Hydroxy-4,4-dimethyl-6-oxocyclohex-1-en-1-yl)(4-(dimethylamino)phenyl)methyl)-1,3-dimethyl-2,6-dioxo-1,2,3,6-tetrahydropyrimidin-4-olate diethylaminium salt], the “urease inhibitory activity in words” value is reported as “least active; also recorded: inactivity”.

same assay, conditions: jack bean urease, indophenol method, pH 6.8, 30 °C, 15 min incubation, triplicate; read-out: Urease inhibition IC50 ± SEM

Work on “2-((2-Hydroxy-4,4-dimethyl-6-oxocyclohex-1-en-1-yl)(m-tolyl)methyl)-5,5-dimethyl-3-oxocyclohex-1-enolate diethylaminium salt [Compound 5d]” yielded an IC50 of 51.3 ± 0.45 µM.
